PubChem BioAssay (NCI)
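Method: 48-hour compound exposure of cells in 96-well plates, five concentrations, linear interpolation of endpoints. TGI is the concentration that stops growth completely.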

Tests used:
Assay in all cases: growth of human tumour cells (NCI), 48 h
786-0 renal = system: 786-0 renal
A498 renal = system: A498 renal
A549 NSCLC = system: A549 NSCLC
ACHN renal = system: ACHN renal
BT-549 breast = system: BT-549 breast
CCRF-CEM leukemia = system: CCRF-CEM leukemia
COLO 205 colon = system: COLO 205 colon
DU-145 prostate = system: DU-145 prostate
EKVX NSCLC = system: EKVX NSCLC
HCC-2998 colon = system: HCC-2998 colon
HCT-116 colon = system: HCT-116 colon
HCT-15 colon = system: HCT-15 colon
HL-60(TB) leukemia = system: HL-60(TB) leukemia
HOP-62 NSCLC = system: HOP-62 NSCLC
HOP-92 NSCLC = system: HOP-92 NSCLC
HT29 colon = system: HT29 colon
IGROV1 ovarian = system: IGROV1 ovarian
K-562 leukemia = system: K-562 leukemia
LOX IMVI melanoma = system: LOX IMVI melanoma
M14 melanoma = system: M14 melanoma
MALME-3M melanoma = system: MALME-3M melanoma
MCF7 breast = system: MCF7 breast
MDA-MB-231 breast = system: MDA-MB-231 breast
MDA-MB-435 = system: MDA-MB-435
MDA-N = system: MDA-N
MOLT-4 leukemia = system: MOLT-4 leukemia
NCI-H226 lung = system: NCI-H226 lung
NCI-H23 lung = system: NCI-H23 lung
NCI-H460 lung = system: NCI-H460 lung
NCI/ADR-RES ovarian = system: NCI/ADR-RES ovarian
OVCAR-3 ovarian = system: OVCAR-3 ovarian
OVCAR-4 ovarian = system: OVCAR-4 ovarian
OVCAR-5 ovarian = system: OVCAR-5 ovarian
OVCAR-8 ovarian = system: OVCAR-8 ovarian
PC-3 prostate = system: PC-3 prostate
RPMI-8226 leukemia = system: RPMI-8226 leukemia
SF-268 CNS = system: SF-268 CNS
SF-295 CNS = system: SF-295 CNS
SK-MEL-28 melanoma = system: SK-MEL-28 melanoma
SK-MEL-5 melanoma = system: SK-MEL-5 melanoma
SK-OV-3 ovarian = system: SK-OV-3 ovarian
SN12C renal = system: SN12C renal
SNB-19 CNS = system: SNB-19 CNS
SNB-75 CNS = system: SNB-75 CNS
SR leukemia = system: SR leukemia
SW-620 colon = system: SW-620 colon
T-47D breast = system: T-47D breast
TK-10 renal = system: TK-10 renal
U251 CNS = system: U251 CNS
UACC-257 melanoma = system: UACC-257 melanoma
UACC-62 melanoma = system: UACC-62 melanoma
UO-31 renal = system: UO-31 renal
CAKI-1 renal = system: CAKI-1 renal
KM12 colon = system: KM12 colon
SK-MEL-2 melanoma = system: SK-MEL-2 melanoma
NCI-H522 lung = system: NCI-H522 lung
RXF 393 renal = system: RXF 393 renal
SF-539 CNS = system: SF-539 CNS
HS 578T breast = system: HS 578T breast

Measured: TGI

N=C(N)C1CN(CC=O)C(=O)NC1=O (configuration not stated)
not listed: CAKI-1 renal | KM12 colon | SK-MEL-2 melanoma | NCI-H522 lung | RXF 393 renal | SF-539 CNS | HS 578T breast
> 100 µM: all other assays above

COc1ccc(C(CC(=O)c2ccccc2)C(=O)c2ccc3c(c2)OCO3)cc1 (configuration not stated)
not listed: BT-549 breast | HCT-116 colon | HOP-92 NSCLC | HT29 colon | LOX IMVI melanoma | OVCAR-3 ovarian | OVCAR-4 ovarian | OVCAR-5 ovarian | NCI-H522 lung | RXF 393 renal | SF-539 CNS | HS 578T breast
> 100 µM: all other assays above

O=C(CCCN1CC=C(n2c(=O)[nH]c3ccccc32)CC1)c1cccs1
not listed: BT-549 breast | HS 578T breast
> 100 µM: all other assays above

O=C1c2cccnc2C(=O)c2c1nc1ccccc1c2-c1cncc(-c2c3c(nc4ccccc24)C(=O)c2cccnc2C3=O)c1
2.08 µM: CCRF-CEM leukemia
0.617 µM: COLO 205 colon
> 24.8 µM: K-562 leukemia
0.944 µM: NCI-H23 lung
1.28 µM: HT29 colon
1.08 µM: UACC-257 melanoma
2.91 µM: T-47D breast
5.93 µM: HOP-92 NSCLC
0.565 µM: DU-145 prostate
0.352 µM: HCT-116 colon
2.86 µM: TK-10 renal
0.9 µM: MDA-MB-435
1.64 µM: CAKI-1 renal
0.778 µM: MDA-N
0.618 µM: OVCAR-8 ovarian
1.6 µM: SNB-75 CNS
3.22 µM: OVCAR-3 ovarian
1.25 µM: SF-268 CNS
0.906 µM: SW-620 colon
0.0608 µM: SR leukemia
5.9 µM: OVCAR-5 ovarian
0.946 µM: UO-31 renal
0.286 µM: IGROV1 ovarian
1.22 µM: U251 CNS
2.6 µM: A549 NSCLC
0.437 µM: ACHN renal
0.228 µM: 786-0 renal
5.48 µM: RXF 393 renal
5.39 µM: A498 renal
0.613 µM: SN12C renal
1.47 µM: HCC-2998 colon
11 µM: PC-3 prostate
2.27 µM: HS 578T breast
0.414 µM: HCT-15 colon
4.1 µM: SK-MEL-2 melanoma
0.928 µM: MDA-MB-231 breast
0.788 µM: MOLT-4 leukemia
0.784 µM: NCI-H522 lung
0.576 µM: M14 melanoma
1.57 µM: SK-MEL-28 melanoma | SNB-19 CNS
1.52 µM: BT-549 breast | MALME-3M melanoma
2 µM: KM12 colon
0.449 µM: LOX IMVI melanoma
0.478 µM: HL-60(TB) leukemia
0.52 µM: SK-MEL-5 melanoma
0.808 µM: RPMI-8226 leukemia
0.516 µM: NCI-H460 lung
2.1 µM: NCI/ADR-RES ovarian | SK-OV-3 ovarian
1.91 µM: OVCAR-4 ovarian
0.883 µM: NCI-H226 lung
1.62 µM: SF-295 CNS
1.09 µM: UACC-62 melanoma
1.73 µM: EKVX NSCLC
